Reference: PMC3364120 (British Journal of Cancer, 2012)
Read-outs that look alike come from different tables or passages of the source. Values belong to the compound of their own block, whether it stands above or below them.

Assays:
OCT-1 [1] = target: T1, OCT-1 (Homo sapiens, UniProt O15245); assay: OCT-1 activity; format: cell-based; conditions: K562; for change in OA / imatinib uptake via OCT-1: NSAID at concentration of Supplementary Table 1, 2 h
T1 sequence (O15245 1-554): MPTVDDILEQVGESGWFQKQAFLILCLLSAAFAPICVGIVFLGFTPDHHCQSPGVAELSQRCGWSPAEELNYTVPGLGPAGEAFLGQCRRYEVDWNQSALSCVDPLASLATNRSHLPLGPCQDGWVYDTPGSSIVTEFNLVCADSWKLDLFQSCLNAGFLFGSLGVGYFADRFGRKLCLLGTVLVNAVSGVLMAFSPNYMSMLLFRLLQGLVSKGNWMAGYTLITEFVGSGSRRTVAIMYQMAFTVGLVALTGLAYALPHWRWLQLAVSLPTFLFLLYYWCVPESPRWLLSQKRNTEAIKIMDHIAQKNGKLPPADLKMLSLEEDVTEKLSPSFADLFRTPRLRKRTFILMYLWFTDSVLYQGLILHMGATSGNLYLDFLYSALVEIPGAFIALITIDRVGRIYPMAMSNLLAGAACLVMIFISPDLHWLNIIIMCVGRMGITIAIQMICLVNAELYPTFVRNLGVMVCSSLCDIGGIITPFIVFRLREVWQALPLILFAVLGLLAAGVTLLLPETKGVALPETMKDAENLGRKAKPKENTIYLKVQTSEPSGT

OCT-1 [2] = target: T1, OCT-1; assay: OCT-1 activity; format: cell-based; conditions: KU812
KU812 cells = assay: Trypan blue exclusion assay, viable cell number, KU812; format: cell-based, human; conditions: for number of viable cells: 72 hours
OCT-1 [3] = target: T1, OCT-1; assay: OCT-1 activity; format: cell-based; conditions: MNCs from normal individuals
hOCT-1 = conditions: 0.5 mM NSAID; transfected S2 cells expressing hOCT-1; ref Khamdang et al, 2002; cited from earlier work
K562 cells = assay: Trypan blue exclusion assay, viable cell number, K562; format: cell-based, human; conditions: for number of viable cells: 72 hours
[4] = ref Siu et al, 2000; Juhlin et al, 2004; Bramlage and Goldis, 2008; cited from earlier work
OCT-1 mRNA [5] = assay: RQ-PCR for OCT-1 mRNA levels, K562; format: cell-based, human; conditions: 2-hour incubation (data not shown)
OCT-1 mRNA [6] = assay: RQ-PCR for OCT-1 mRNA levels, KU812; format: cell-based, human; conditions: 2-hour incubation (data not shown)
OCT-1 [7] = target: T1, OCT-1; assay: OCT-1 activity; format: cell-based
[8] = test system: chronic myeloid leukaemia; conditions: 7-year update of IRIS; ref Hughes et al, 2010; cited from earlier work
[9] = test system: chronic myeloid leukaemia; conditions: imatinib 600 mg per day, ref White et al, 2007b, cited from earlier work

change in OA / imatinib uptake via OCT-1 (OCT-1 [1]): no significant impact
change in imatinib uptake via OCT-1 (OCT-1 [2]): no significant impact
SMILES: Cc1ccc(-c2cc(C(F)(F)F)nn2-c2ccc(S(N)(=O)=O)cc2)cc1 [celecoxib]

change in OA (OCT-1 [3]; n=10, diclofenac (data not shown)): did not result in a significant change
cases moved from Q1 to a higher OA quartile group (OCT-1 [7]; 15 of 29 Q1 cases, 10 μM diclofenac): 51.7%
percentage of Q1 patients' samples in which OA was increased (OCT-1 [7]; CML MNCs with basal OA <4 ng per 200 000 cells (Q1), n=29, 10 μM diclofenac): 93%
median OA in the presence of diclofenac (OCT-1 [7]; patients with basal OA >4 ng per 200 000 cells, n=21, 10 μM diclofenac, 5.49 without, not significant (P=0.714)): 5.92 ng per 200 000cells
SMILES: O=C(O)Cc1ccccc1Nc1c(Cl)cccc1Cl [diclofenac]
number of viable cells (KU812 cells; 10 μM diclofenac + 0.05 μM imatinib): 5.40±0.34 × 10^5 ml^−1
change in cell viability (KU812 cells; diclofenac alone, no imatinib): no significant change
effect on OCT-1-mediated TEA uptake (hOCT-1): significantly inhibit
number of viable cells (K562 cells; 10 μM diclofenac + […] imatinib): 7.82±0.56 × 10^5 ml^−1
change in cell viability (K562 cells; diclofenac alone, no imatinib): no significant change
clinically achievable total plasma concentration [4]: 10 µM
change in level of OCT-1 mRNA (OCT-1 mRNA [5]): no significant change
change in level of OCT-1 mRNA (OCT-1 mRNA [6]): no significant change

decrease in OA (OCT-1 [3]; n=6, ibuprofen): 50%
range of OA post treatment (OCT-1 [3]; n=6, ibuprofen): 1.41–2.82 ng per 200 000 cells
OA post treatment (OCT-1 [3]; n=6, ibuprofen, 3.70±0.45 before): 1.83±0.26 ng per 200 000 cells
OA, % of vehicle control (OCT-1 [1]; 145 μM ibuprofen, 2 h): 48%
OA, % of vehicle control (OCT-1 [2]; 145 μM ibuprofen, 2 h): 59%
reduction in OA (OCT-1 [7]; CP-CML MNCs, 12 cases, 145 μM ibuprofen): 41%
range of OA after treatment (OCT-1 [7]; CP-CML MNCs, n=12, 145 μM ibuprofen): 1.53–7.85 ng per 200 000 cells
average OA after treatment (OCT-1 [7]; CP-CML MNCs, n=12, 145 μM ibuprofen, 7.53±0.82 before): 4.30±0.52 ng per 200 000 cells
SMILES: CC(C)Cc1ccc(C(C)C(=O)O)cc1 (centres unmarked) [ibuprofen]
number of viable cells (KU812 cells; 145 μM ibuprofen + 0.1 μM imatinib): 7.23±0.78 × 10^5 ml^−1
effect on OCT-1-mediated TEA uptake (hOCT-1): significantly inhibit
number of viable cells (K562 cells; 145 μM ibuprofen + 0.5 μM imatinib): 8.16±1.01 × 10^5 ml^−1
change in level of OCT-1 mRNA (OCT-1 mRNA [5]): no significant change
change in level of OCT-1 mRNA (OCT-1 mRNA [6]): no significant change

SMILES: Cc1ccc(NC(=O)c2ccc(CN3CCN(C)CC3)cc2)cc1Nc1nccc(-c2cccnc2)n1 [imatinib]
number of viable cells (KU812 cells; 0.05 μM imatinib alone): 8.40±0.74 × 10^5 ml^−1
number of viable cells (KU812 cells; 0.1 μM imatinib alone): 4.97±0.47 × 10^5 ml^−1
number of viable cells (K562 cells; 0.5 μM imatinib alone): 4.88±0.96 × 10^5 ml^−1
overall event-free survival [8]: 81%
transformation-free survival (to accelerated phase/blast crisis) [8]: 93%
percentage of patients achieving major molecular response (MMR) by 24 months ([9]; patients with high OA): 85%
percentage of patients achieving major molecular response (MMR) by 24 months ([9]; patients with low OA): 45%

SMILES: COc1ccc2c(c1)c(CC(=O)O)c(C)n2C(=O)c1ccc(Cl)cc1 [indomethacin]
effect on OCT-1-mediated TEA uptake (hOCT-1): significantly inhibit

change in OA / imatinib uptake via OCT-1 (OCT-1 [1]): no significant impact
change in imatinib uptake via OCT-1 (OCT-1 [2]): no significant impact
SMILES: CS(=O)(=O)c1ccc(C2=C(c3ccccc3)C(=O)OC2)cc1 [rofecoxib]

SMILES: CC1=C(CC(=O)O)c2cc(F)ccc2/C1=C\c1ccc([S+](C)[O-])cc1 (centres unmarked) [sulindac]
effect on OCT-1-mediated TEA uptake (hOCT-1): significantly inhibit
